Test results published in patent US6436441B1, “Hydrogel-forming sustained-release preparation” (Yamanouchi Pharmaceutical Co., Ltd., priority 1992, dated 2002).

Settings: JP method, 25 ± 5° C.; the additive itself

O=C(CO)[C@@H](O)[C@H](O)[C@H](O)CO [D-Fructose]
Solubility (volume of water required for dissolving 1 gram): 1 mL
